Details of series [1]: method as in PMID 34657559, PMID 9490025, PMID 10376886, PMID 11154732. The following applies: cited from earlier work.
The next series concerns sickling. More on the design: method as in PMID 30289405. Conditions: cited from earlier work.
Series [2] can be described thus: Solubility study of Pro-7 in solvents. Format: physicochemical. Conditions: 25 °C, 48 h. Here is the method:
The solubility of Pro-7 was tested in water, ethanol, methanol, dichloromethane, chloroform, and acetone. An excess amount of the Pro-7 was added to a known volume of each solvent in a screw cap vial. Each vial was kept in a shaking water bath at 25 °C for 48 h. The content of each vial was filtered using an Acrodisc® syringe filter of […] (Port Washington, NY, USA), and the concentration of Pro-7 determined spectrophotometrically at 296 nm.

Series [3] can be described thus: Drug solubility in SNEDDS formulation. Format: physicochemical. The following applies: SNEDDS (oleic acid 15%, tween 80 10%, PEG 400 75%), 25 °C, 48 h. The procedure: To determine the drug solubility in the prepared SNEDDS formulation, excess amount (approximately 300 mg) of Pro-7 was added to 4 mL of the prepared SNEDDS. The mixture was vortex and kept in a shaking water bath at 25 °C for 48 h, and then filtered using Acrodisc® syringe filter ([…]) and the concentration of Pro-7 determined spectrophotometrically at 296 nm.

The nature of series [4]: In-vivo pharmacokinetic study in rat. More on the design: species or system male Sprague Dawley rats. The procedure: Investigations were carried out to examine the pharmacokinetic profiles of Pro-7, including the enteric-coated microspheres and the intravenous (IV) formulation using a one-period parallel design. The study design and conduct adhered to ethical guidelines and regulatory standards to ensure the welfare of the animals. The study was also conducted in strict adherence to internationally recognized guidelines for ethical research and regulatory standards. The principles of Good Clinical Practice (GCP), the guidelines set forth by the International Conference on Harmonization (ICH), and the rigorous standards of the European Medicines Agency (EMA) served as the framework for the study’s execution. The protocol for the animal study underwent a thorough evaluation and received formal approval from the Research Ethics Committee at the Faculty of Pharmacy, King Abdulaziz University, Saudi Arabia.
Male Sprague Dawley rats, each with an average weight of 250 g were housed in a controlled facility with a 12-h light/dark cycle, at constant temperature of 25 °C, with continuous access to both food and water throughout the study. All animals were acclimated to standard housing for at least 7 days. The animals were separated into distinct groups (n = 5). Group I was treated with a single PO (50 mg/kg body weight) dose, while Group II was administered a single IV (25 mg/kg body weight) dose of Pro-7. Additional three control groups were included to validate and enhance the robustness of our findings. These include a normal control group without treatment, a control IV administration group that was administered non-medicated SNEDDS formulation, and a control oral administration group that was given non-medicated oral formulation.
The oral formulation was suspended in 1% aqueous carboxymethyl cellulose. Blood samples from the jugular vein, at 0.25 (for IV only), 0.5, 2, 4, 8, 10, 12, and 24 h were collected into EDTA tubes. To determine the concentration of TD-7 in the whole blood, aliquots (45 µL) of blood samples were mixed with 20 µL of warfarin (used as IS) in a concentration of 1 µg/mL and 500 µL of 1% formic acid in acetonitrile. The vials were centrifuged for 5 min at 10,000 rpm, and 2 µL of the resulting solution was analyzed by LC-MS/MS.
The concentration of both TD-7 and Pro-7 in the collected blood samples were quantified using LC–MS/MS method utilizing LLS/DMPK/005 Shimadzu-8045 LC-MS/MS instrument equipped with Lab solution 6.8 software. Linearity of the TD-7 and Pro-7 assay methods was verified within the concentration range 8.21–3776 and 20.4–9396 ng/mL, respectively. A regression coefficient (R^2) of more than 0.993 was obtained. The analytical method was validated in accordance with the FDA Bio-analytical Method Validation Guidelines 2003. Chromatographic separation was conducted on Atlantis C18 (4.6 × 50 mm, 3.5 µm) at 30 °C. The injection volume was 2 µL, the flow rate was adjusted at 0.7 mL/min, the total run time was 2.5 min, and the mobile phase consisted of 0.1% formic acid in acetonitrile:10 mM aqueous ammonium formate (70:30 v/v). The retention times for TD-7, Pro-7 and IS were 1.047, 1.178, and 1.503 min, respectively. The limit of quantification for TD-7 and Pro-7 was established at of 8.21 and 20.4, respectively.
Pharmacokinetic parameters were calculated using non-compartmental analysis with Kinetica TM (version 4, Thermo Electron Corporation, Waltham, MA, USA) software. The following parameters were determined: Maximum plasma concentration (Cmax), Elimination half-life (t½), Area under the plasma concentration-time curve from time 0 to the last measurable concentration (AUC0–t), Area under the plasma concentration-time curve from time 0 to infinity (AUC0–∞), Clearance (Cl), and Volume of distribution (Vd).
The t½ was determined as 0.693 divided by the elimination rate constant. […]

The mark [5] stands for this setting: intravenous 25 mg/kg Pro-7, rat, blood, n = 5.
[6] abbreviates: intravenous 25 mg/kg Pro-7, rat, n = 5.
The mark [7] stands for this setting: oral 50 mg/kg Pro-7 (enteric-coated formulation), rat, blood, n = 5.
[8] abbreviates: oral 50 mg/kg Pro-7 (enteric-coated formulation), rat, n = 5.

In the case of `COc1ccc(OCc2cccc(CO)n2)c(C=O)c1` [TD-7, 2-((6-(hydroxymethyl)pyridin-2-yl)methoxy)-5-methoxybenzaldehyde], the “oral bioavailability (in words)” value in series [1] was “low oral bioavailability”. In the series with sickling, the “sickling inhibition potency over vanillin” value is recorded as “several fold”.
One may read the solubility as how much of the substance goes into solution per volume. Usually aqueous solubility stands for the dissolved amount per volume that the medium holds. A low value points to little dissolved substance. By Cmax is commonly meant the maximum level reached in the sampled fluid or tissue. For orientation: t½ means the time needed for the level to fall by half in the phase considered. Low values mean rapid decline, high ones slow decline. As usually defined, the Tmax is the time from dosing to the highest level. On to “1-(2-(3-((6-(hydroxymethyl)pyridin-2-yl)methoxy)-5 methoxyphenyl)thiazolidin-4-yl)propan-1-one [Pro-7]”, for which the solubility in series [2] (acetone) worked out at 11.64 mg/mL; in series [2] (chloroform), 66.43 mg/mL; in series [2] (dichloromethane), 54.89 mg/mL; in series [2] (ethanol), 85.98 mg/mL; in series [2] (methanol), 88.34 mg/mL. This compound had an aqueous solubility in series [2] (water) of 0.165 mg/mL. Besides, in series [3], the “solubility in the prepared SNEDDS formulation” value was determined as 68.94 mg/mL. The “AUC0–t” value in series [4] (setting [5]) was 1830 ± 737 ng·h/mL; in series [4] (setting [7]) it was 672 ± 255 ng·h/mL. Further, the “AUC0–∞” value in series [4] (setting [5]) amounted to 1956 ± 792 ng·h/mL; in series [4] (setting [7]), 730 ± 225 ng·h/mL. Moreover, the Cmax in series [4] (setting [5]) turned out to be 1426 ± 926 ng/mL; in series [4] (setting [7]), 469 ± 322 ng/mL. The results for the t½ in series [4] (setting [5]) and in series [4] (setting [7]) were 4.98 ± 1.89 h and 4.73 ± 1.22 h, respectively. Besides, the figures for the Cl in series [4] (setting [6]) and in series [4] (setting [8]) were 238 ± 85.9 mL/min/kg and 200.89 ± 34.3 mL/min/kg, respectively. For the same compound, the values for the Vd in series [4] (setting [6]) and in series [4] (setting [8]) were 98.9 ± 45.3 L/kg and 83.7 ± 22.1 L/kg, respectively. In series [4] (setting [7]), the Tmax came out at 0.5 ± 0.0 h. In addition, in series [4] (oral 50 mg/kg vs intravenous 25 mg/kg, rat), the “Fraction of drug absorbed (% F)” value amounted to 18.4%.

(Values after publication PMC10675597, “Design, Synthesis, and Antisickling Investigation of a Thiazolidine Prodrug of TD-7 That Prolongs the Duration of Action of Antisickling Aromatic Aldehyde” (Pharmaceutics, 2023).)
